The values that follow come from patent publication US20240166639A1, “POTENT AND SELECTIVE COMPOUNDS AS SEROTONIN 1B RECEPTOR MODULATORS” (LEUKOS BIOTECH, S.L., priority 2020, published 2024).

Structures are written as SMILES.

One data set deals with human 5-HT2A receptor (Homo sapiens (Human), UniProt P28223). Description: Competition binding in human 5-HT2A receptor. Particulars: [3H]-Ketanserin, CHO-5-HT2A membranes; read-out: h5-HT2A Ki. The procedure: Serotonin 5-HT2A receptor competition binding experiments were carried out in a polypropilene 96-well plate. In each well was incubated 80 μg of membranes from CHO-5-HT2A cell line prepared in the laboratory (protein concentration=4337 μg/ml), 1 nM [^3H]-Ketanserin (47.3 Ci/mmol, 1 mCi/ml, Perkin Elmer NET791250UC) and compounds studied and standard. Non-specific binding was determined in the presence of Methysergide 1 μM (Sigma M137). The reaction mixture (Vt: 250 μl/well) was incubated at 37° C. for 30 min, 200 μL was transfered to GF/B 96-well plate (Millipore, Madrid, Spain) pretreated with 0.5% of PEI and treated with binding buffer (Tris-HCl 50 mM, pH=7.4), after was filtered and washed six times with 250 μl wash buffer (Tris-HCl 50 mM, pH=6.6), before measuring in a microplate beta scintillation counter (Microbeta Trilux, PerkinElmer, Madrid, Spain).
Chain of human 5-HT2A receptor (P28223 whole entry): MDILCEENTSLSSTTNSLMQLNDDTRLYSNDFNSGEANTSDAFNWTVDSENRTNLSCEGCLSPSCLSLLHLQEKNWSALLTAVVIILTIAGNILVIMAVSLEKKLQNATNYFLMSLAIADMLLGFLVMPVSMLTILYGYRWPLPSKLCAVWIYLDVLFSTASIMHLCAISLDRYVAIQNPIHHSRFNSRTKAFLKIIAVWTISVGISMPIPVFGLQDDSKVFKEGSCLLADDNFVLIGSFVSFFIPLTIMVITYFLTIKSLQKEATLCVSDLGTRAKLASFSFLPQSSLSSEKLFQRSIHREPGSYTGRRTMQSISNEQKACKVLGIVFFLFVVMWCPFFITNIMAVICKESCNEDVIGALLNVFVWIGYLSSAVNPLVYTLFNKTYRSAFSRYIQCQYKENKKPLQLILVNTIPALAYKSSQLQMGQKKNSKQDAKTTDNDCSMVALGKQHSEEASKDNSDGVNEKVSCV
The raw radioactivity data is adjusted to a logistic regression of 4 parameters using GraphPad Prism software, from the specific junction the value of IC50 is obtained. From the IC50 the Ki is calculated according to the following formula: […]
(§1) Being: • IC50: inhibitory concentration, • D: real concentration of radioligand and • Kd: dissociation constant (affinity of radioligand to the receptor).

A further data set has as its target human 5-HT1B receptor (Homo sapiens (Human), UniProt P28222). As to the kind of experiment: Competition binding in human 5-HT1B receptor. To be noted: [3H]-GR125743, Hela-5-HT1B membranes; read-out: h5-HT1B Ki. The procedure: Serotonin 5-HT1B receptor competition binding experiments were carried out in a polypropylene 96-well plate. In each well was incubated 5 μg of membranes from Hela-5-HT1B cell line prepared in the laboratory (Lot: A001/14-11-2011, protein concentration=3179 μg/ml), 1.5 nM [^3H]-GR125743 ([…], 0.1 mCi/ml, Perkin Elmer NET1172100UC) and compounds studied and standard. Non-specific binding was determined in the presence of GR55562 10 μM (TOCRIS 1054). The reaction mixture (Vt: 250 μl/well) was incubated at 25° C. for 90 min, 200 μL was transfered to GF/C 96-well plate (Millipore, Madrid, Spain) pretreated with 0.5% of PEI and treated with binding buffer (Tris-HCl 50 mM, EDTA 1 mM, MgCl2 10 mM, pH=7.4), after was filtered and washed four times with 250 μl wash buffer (Tris-HCl 50 mM, pH=7.4), before measuring in a microplate beta scintillation counter (Microbeta Trilux, PerkinElmer, Madrid, Spain). […] From the IC50 the Ki is calculated according to the following formula: […]
as §1

A further data set has as its system MonoMac-1. As to the kind of experiment: Cell viability assay, AML cell line MonoMac-1. The class given is cell-based. To be noted: 48 h treatment, live cells by flow cytometry. The procedure: (§2) 0.15×10^6 AML cell lines (HL-60 or MonoMac-1) per mL were cultured in completed RPMI medium, supplemented with 10% Fetal bovine serum (FBS). Compounds were added to the medium at the concentration indicated (0.1, 1 and 10 μM), while controls were treated with equivalent concentration of vehicle (DMSO). Primary validation screenings were analyzed after 72 h of treatment, EC50 was determined upon 48 h treatments. Cells were stained with the live-dead discrimination dye 7-aminoactinomycin D (7-AAD) and Hoechst 33342 and acquired in a flow cytometer, with a volumetric counting. Live cells were discriminated based on a discrete FSC-SSC profile, 7-AAD negativity and dim positivity to Hoechst 33342. EC50 was calculated with the Prism GraphPad software.

The next data set concerns HL-60. As to the kind of experiment: Cell viability assay, AML cell line HL-60. The class given is cell-based. Particulars: 48 h treatment, live cells by flow cytometry. Here is the method:
as §2
(In general: In flow cytometry, cells or beads pass a laser one at a time.)

Data set [1] in a line: Healthy blood cells viability assay. Particulars: 48 h treatment, healthy peripheral blood mononuclear cells; read-out: EC50 (uM), cytotoxic capacity on healthy cells. The class given is cell-based. Here is the method:
0.5×10^6 peripheral blood-mononuclear blood cells per mL were cultured in completed RPM medium, supplemented with 10% FBS. Compounds were added to the medium at 0.5/1/5/10/50 μM, while controls were treated with equivalent concentration of vehicle (DMSO). Upon 48 h treatment, cells were stained with the live-dead discrimination dye 7-AAD and Hoechst 33342, the pan-hernatopoietic surface marker CD45, and acquired in a flow cytometer, with a volumetric counting. Live cells were discriminated based on a discrete FSC-SSC profile, 7-AAD negativity, dim positivity to Hoechst 33342 and CD45 positivity. EC50 was calculated with the Prism GraphPad software.

Data set [2] concerns human acute myeloid leukemia (AML) cells. To be noted: every 2 days for 14 days, apomorphine 5 mg/kg, methiothepin 0.1 mg/kg, cited from earlier work; for AML burden in bone marrow (BM): vs vehicle.

Chain of human 5-HT1B receptor (P28222 whole entry): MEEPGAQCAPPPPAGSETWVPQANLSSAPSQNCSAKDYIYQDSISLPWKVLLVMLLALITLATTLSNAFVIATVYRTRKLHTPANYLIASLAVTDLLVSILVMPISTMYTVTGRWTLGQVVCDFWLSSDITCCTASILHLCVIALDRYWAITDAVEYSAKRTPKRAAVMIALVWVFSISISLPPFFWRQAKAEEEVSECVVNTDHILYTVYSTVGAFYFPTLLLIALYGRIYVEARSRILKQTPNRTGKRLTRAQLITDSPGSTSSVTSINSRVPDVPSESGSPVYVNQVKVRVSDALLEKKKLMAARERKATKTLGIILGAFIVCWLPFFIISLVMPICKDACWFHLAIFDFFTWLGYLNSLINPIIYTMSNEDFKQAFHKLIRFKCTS

`Cc1nc(-c2ccc(-c3ccc(C(=O)Nc4cc(OCCN(C)C)c(C#N)cn4)cc3)c(Cl)c2)no1` [Example 23, 2′-chloro-N-(5-cyano-4-(2-(dimethylamino)ethoxy)pyridin-2-yl)-4′-(5-methyl-1,2,4-oxadiazol-3-yl)-[1,1′-biphenyl]-4-carboxamide]: the values for the Ki at human 5-HT2A receptor and on human 5-HT1B receptor were 3000 nM and 7.9 nM, respectively. The concentration giving a half-maximal response (EC50) (in general, the concentration that produces a half-maximal response) is 540 nM in the data set on MonoMac-1 (Mono-Mac-1) and 970 nM in the data set with HL-60 (Homo sapiens, HL-60). Moreover, the concentration giving a half-maximal response (EC50) at 48 h in data set [1] is more than 50 µM.
With `Cc1nc(-c2ccc(-c3ccc(C(=O)Nc4cc(OCCN(C)C)c(C#N)cn4)cc3)c(C3CC3)c2)no1` [Example 21, N-(5-cyano-4-(2-(dimethylamino)ethoxy)pyridin-2-yl)-2′-cyclopropyl-4′-(5-methyl-1,2,4-oxadiazol-3-yl)-[1,1′-biphenyl]-4-carboxamide], the figures for the inhibitory constant (Ki) on human 5-HT2A receptor and on human 5-HT1B receptor were 3500 nM and 6.3 nM, respectively. In addition, the EC50 with MonoMac-1 (Mono-Mac-1) was 3320 nM; in the data set on HL-60 (Homo sapiens, HL-60) it was 3660 nM. Further, the EC50 at 48 h in data set [1] was more than 50 µM.
Turning to `Cc1nc(-c2ccc(-c3ccc(C(=O)Nc4ncc(C#N)c(OCCN(C)C)n4)cc3)c(C3CC3)c2)no1` [Example 36, N-(5-cyano-4-(2-(dimethylamino)ethoxy)pyrimidin-2-yl)-2′-cyclopropyl-4′-(5-methyl-1,2,4-oxadiazol-3-yl)-[1,1′-biphenyl]-4-carboxamide], the EC50 with MonoMac-1 (Mono-Mac-1) worked out at 7370 nM; in the data set with HL-60 (Homo sapiens, HL-60) it was 5870 nM. Further, the EC50 at 48 h in data set [1] worked out at 25 µM.
With `COc1cc(-c2noc(C)n2)ccc1-c1ccc(C(=O)Nc2cc(OCCN(C)C)c(C#N)cn2)cn1` [Example 49, N-(5-cyano-4-(2-(dimethyiamino)ethoxy)pyridin-2-yl)-6-(2-methoxy-4-(5-methyl-1,2,4-oxadiazol-3-yl)phenyl)nicotinamide], the Ki (in general, a measure of affinity in units of concentration, obtained from inhibition or displacement) is more than 10000 nM on human 5-HT2A receptor and 126 nM on human 5-HT1B receptor. Further, the 50% effective concentration (EC50) with MonoMac-1 turned out to be 4170 nM; in the data set with HL-60, 1160 nM.
In the case of `Cc1nc(-c2ccc(-c3ccc(C(=O)Nc4ccc(C#N)c(OCCN(C)C)c4)cn3)c(C3CC3)c2)no1` [Example 7, N-(4-cyano-3-(2-(dimethylamino)ethoxy)phenyl)-6-(2-cyclopropyl-4-(5-methyl-1,2,4-oxadiazol-3-yl)phenyl)nicotinamide], the Ki turned out to be 2500 nM at human 5-HT2A receptor and 9.7 nM at human 5-HT1B receptor. The half-maximal effective concentration (EC50) worked out at 790 nM in the data set with MonoMac-1 (Mono-Mac-1) and 650 nM in the data set on HL-60 (Homo sapiens, HL-60). Moreover, the EC50 at 48 h in data set [1] amounted to 50 µM.
Take `COc1cc(-c2noc(C)n2)ccc1-c1ccc(C(=O)Nc2cc(OCCN(C)C)c(Br)cn2)cn1` [Example 43, N-(5-bromo-4-(2-(dimethylamino)ethoxy)pyridin-2-yl)-6-(2-methoxy-4-(5-methyl-1,2,4-oxadiazol-3-yl)phenyl)nicotinamide]: the figures for the Ki on human 5-HT2A receptor and on human 5-HT1B receptor were 2000 nM and 1.5 nM, respectively. The concentration giving a half-maximal response (EC50) came to 1900 nM in the data set on MonoMac-1 (Mono-Mac-1) and 2520 nM in the data set on HL-60 (Homo sapiens, HL-60).
On to `Cc1nc(-c2ccc(-c3ccc(C(=O)Nc4cc(OCCN(C)C)c(Br)cn4)cn3)c(C3CC3)c2)no1` [Example 39, N-(5-bromo-4-(2-(dimethylamino)ethoxy)pyridin-2-yl)-6-(2-cyclopropyl-4-(5-methyl-1,2,4-oxadiazol-3-yl)phenyl)nicotinamide], for which the EC50 in the data set on MonoMac-1 (Mono-Mac-1) worked out at 2600 nM; in the data set with HL-60 (Homo sapiens, HL-60) it was 3450 nM. Besides, in data set [1], the 50% effective concentration (EC50) at 48 h worked out at 50 µM.
In the case of `Cc1nc(-c2ccc(-c3ccc(NC(=O)c4ccc(Br)c(OCCN(C)C)c4)cn3)c(F)c2)no1` [Example 65, 4-bromo-3-(2-(dimethylamino)ethoxy)-N-(6-(2-fluoro-4-(5-methyl-1,2,4-oxadiazol-3-yl)phenyl)pyridin-3-yl)benzamide], the inhibition constant Ki at human 5-HT2A receptor is 1000 nM; at human 5-HT1B receptor, 0.5 nM. Besides, the EC50 came to 1330 nM in the data set on MonoMac-1 (Mono-Mac-1) and 930 nM with HL-60 (Homo sapiens, HL-60).
Regarding `Cc1nc(-c2ccc(-c3ccc(C(=O)Nc4ccc(C#N)c(OCCN(C)C)n4)cn3)c(C3CC3)c2)no1` [Example 54, N-(5-cyano-6-(2-(dimethylamino)ethoxy)pyridin-2-yl)-6-(2-cyclopropyl-4-(5-methyl-1,2,4-oxadiazol-3-yl)phenyl)nicotinamide], the figures for the Ki on human 5-HT2A receptor and at human 5-HT1B receptor were more than 10000 nM and 48.3 nM, respectively. The EC50 is 1040 nM with MonoMac-1 (Mono-Mac-1) and 1070 nM in the data set on HL-60 (Homo sapiens, HL-60).
Regarding `CSc1ccc2c(c1)C(N1CCN(C)CC1)Cc1ccccc1S2` (centres unmarked) [methiothepin], in data set [2], the “clonogenic capacity of engrafted AML cells” value is given as “impaired” and the “AML burden in bone marrow (BM)” value is “significant reduction”.
In the case of `Cc1nc(-c2ccc(-c3ccc(C(=O)Nc4cc(OCCN(C)C)c(C#N)cn4)cn3)c(Cl)c2)no1` [Example 47, 6-(2-chloro-4-(5-methyl-1,2,4-oxadiazol-3-yl)phenyl)-N-(5-cyano-4-(2 (dimethylamino)ethoxy)pyridin-2-yl)nicotinamide], the figures for the inhibitory constant (Ki) on human 5-HT2A receptor and at human 5-HT1B receptor were more than 10000 nM and 9.7 nM, respectively. Further, the concentration for a half-maximal effect (EC50) is 4120 nM with MonoMac-1 (Mono-Mac-1) and 6630 nM in the data set with HL-60 (Homo sapiens, HL-60). The EC50 at 48 h in data set [1] came to 25 µM.
As for `Cc1nc(-c2ccc(-c3ccc(C(=O)Nc4ncc(C#N)c(OCCN(C)C)n4)cc3)c(Cl)c2)no1` [Example 38, 2′-chloro-N-(5-cyano-4-(2-(dimethylamino)ethoxy)pyrimidin-2-yl)-4′-(5-methyl-1,2,4-oxadiazol-3-yl)-[1,1′-biphenyl]-4-carboxamide], the inhibition constant (Ki) on human 5-HT2A receptor was more than 10000 nM; at human 5-HT1B receptor, 16.5 nM. Further, the concentration giving a half-maximal response (EC50) at 48 h in data set [1] is 50 µM.
With `Cc1nc(-c2ccc(-c3ccc(C(=O)Nc4cc(OCCN(C)C)c(C#N)cn4)cn3)c(C3CC3)c2)no1` [Example 45, N-(5-cyano-4-(2-(dimethylamino)ethoxy)pyridin-2-yl)-6-(2-cyclopropyl-4-(5-methyl-1,2,4-oxadiazol-3-yl)phenyl)nicotinamide], the Ki at human 5-HT2A receptor is more than 10000 nM; on human 5-HT1B receptor, 25.9 nM. Moreover, the concentration for a half-maximal effect (EC50) in the data set on MonoMac-1 (Mono-Mac-1) amounted to 1150 nM; in the data set on HL-60 (Homo sapiens, HL-60), 1760 nM. The EC50 at 48 h in data set [1] is more than 50 µM.
For `Cc1nc(-c2ccc(-c3ccc(C(=O)Nc4cc(OCCN(C)C)c(Br)cn4)cn3)c(F)c2)no1` [Example 40, N-(5-bromo-4-(2-(dimethylamino)ethoxy)pyridin-2-yl)-6-(2-fluoro-4-(5-methyl-1,2,4-oxadiazol-3-yl)phenyl)nicotinamide], the Ki at human 5-HT2A receptor came to 1500 nM; at human 5-HT1B receptor, 3.5 nM. Further, the concentration giving a half-maximal response (EC50) came out at 570 nM in the data set on MonoMac-1 (Mono-Mac-1) and 1010 nM in the data set with HL-60 (Homo sapiens, HL-60).
Consider `CN1CCc2cccc3c2[C@H]1Cc1ccc(O)c(O)c1-3` [Apomorphine, reference compound], for which, in data set [2], the “clonogenic capacity of engrafted AML cells” value is recorded as “impaired”. Moreover, in data set [2], the “AML burden in bone marrow (BM)” value is reported as “significant reduction”. The Ki on human 5-HT2A receptor is 6.92 nM; at human 5-HT1B receptor, 1760 nM. Moreover, the EC50 in the data set on MonoMac-1 (Mono-Mac-1) turned out to be 11600 nM; in the data set with HL-60 (Homo sapiens, HL-60), 4880 nM.
